# Active and inactive are the calls of the source. The calls are words filed in the database; no cut-off is given here.
# Key:
# Hordeum vulgare [1] = assay: Inhibition of fatty acid synthesis in Hordeum vulgare (barley) assessed as inhibition of [14C]acetate incoporation in total fatty acids at 200 uM measured as total disintegration per g of fresh weight after 3 hr by liquid scintillation counting (reference value: 5.7 +/- 0.5 dpm x 10^6 g'1 fresh wt); type: functional
# Cucumis sativus [2] = assay: Inhibition of fatty acid synthesis in Cucumis sativus (cucumber) using [14C]malonate assessed as inhibition of [14C]-labeled 24C fatty acid production at 200 uM after 3 hr by liquid scintillation counting; type: functional, organism-based
# Hordeum vulgare [3] = assay: Inhibition of fatty acid synthesis in Hordeum vulgare (barley) using [14C]malonate assessed as inhibition of [14C]-labeled 24C fatty acid production at 200 uM after 3 hr by liquid scintillation counting; type: functional, organism-based
# Cucumis sativus [4] = assay: Inhibition of fatty acid synthesis in Cucumis sativus (cucumber) using [14C]malonate assessed as inhibition of [14C]-labeled 22C fatty acid production at 200 uM after 3 hr by liquid scintillation counting; type: functional, organism-based
# Hordeum vulgare [5] = assay: Inhibition of fatty acid synthesis in Hordeum vulgare (barley) using [14C]malonate assessed as inhibition of [14C]-labeled 22C fatty acid production at 200 uM after 3 hr by liquid scintillation counting; type: functional, organism-based
# Cucumis sativus [6] = assay: Inhibition of fatty acid synthesis in Cucumis sativus (cucumber) using [14C]malonate assessed as inhibition of [14C]-labeled 18C fatty acid production at 200 uM after 3 hr by liquid scintillation counting; type: functional, organism-based
# Hordeum vulgare [7] = assay: Inhibition of fatty acid synthesis in Hordeum vulgare (barley) using [14C]malonate assessed as inhibition of [14C]-labeled 18C fatty acid production at 200 uM after 3 hr by liquid scintillation counting; type: functional, organism-based
# Cucumis sativus [8] = assay: Inhibition of fatty acid synthesis in Cucumis sativus (cucumber) using [14C]acetate assessed as [14C]-labeled 20C fatty acid level at 200 uM after 3 hr by liquid scintillation counting (reference value: 5.1 +/- 0.7%); type: functional; parameters: scale not given: the % may be the effect or the level left
# Hordeum vulgare [9] = assay: Inhibition of fatty acid synthesis in Hordeum vulgare (barley) using [14C]acetate assessed as [14C]-labeled 20C fatty acid level at 200 uM after 3 hr by liquid scintillation counting (reference value: 4.7 +/- 1.6%); type: functional; parameters: scale not given: the % may be the effect or the level left
# Cucumis sativus [10] = assay: Inhibition of fatty acid synthesis in Cucumis sativus (cucumber) using [14C]malonate assessed as inhibition of [14C]-labeled 20C fatty acid production at 200 uM after 3 hr by liquid scintillation counting; type: functional, organism-based
# Hordeum vulgare [11] = assay: Inhibition of fatty acid synthesis in Hordeum vulgare (barley) using [14C]malonate assessed as inhibition of [14C]-labeled 20C fatty acid production at 200 uM after 3 hr by liquid scintillation counting; type: functional, organism-based
# Cucumis sativus [12] = assay: Inhibition of fatty acid synthesis in Cucumis sativus (cucumber) using [14C]malonate assessed as inhibition of [14C]-labeled 16C fatty acid production at 200 uM after 3 hr by liquid scintillation counting; type: functional, organism-based
# Hordeum vulgare [13] = assay: Inhibition of fatty acid synthesis in Hordeum vulgare (barley) using [14C]malonate assessed as inhibition of [14C]-labeled 16C fatty acid production at 200 uM after 3 hr by liquid scintillation counting; type: functional, organism-based
# Cucumis sativus [14] = assay: Inhibition of fatty acid synthesis in Cucumis sativus (cucumber) assessed as inhibition of [14C]malonate incoporation in total fatty acids at 200 uM measured after 3 hr by liquid scintillation counting; type: functional, organism-based
# Hordeum vulgare [15] = assay: Inhibition of fatty acid synthesis in Hordeum vulgare (barley) assessed as inhibition of [14C]malonate incoporation in total fatty acids at 200 uM measured after 3 hr by liquid scintillation counting; type: functional, organism-based
# Cucumis sativus [16] = assay: Inhibition of fatty acid synthesis in Cucumis sativus (cucumber) using [14C]acetate assessed as [14C]-labeled 24C fatty acid level at 200 uM after 3 hr by liquid scintillation counting (reference value: 6.5 +/- 1%); type: functional; parameters: scale not given: the % may be the effect or the level left
# Cucumis sativus [17] = assay: Inhibition of fatty acid synthesis in Cucumis sativus (cucumber) using [14C]acetate assessed as [14C]-labeled 22C fatty acid level at 200 uM after 3 hr by liquid scintillation counting (reference value: 17.9 +/- 2.5%); type: functional; parameters: scale not given: the % may be the effect or the level left
# Cucumis sativus [18] = assay: Inhibition of fatty acid synthesis in Cucumis sativus (cucumber) using [14C]acetate assessed as [14C]-labeled 18C fatty acid level at 200 uM after 3 hr by liquid scintillation counting (reference value: 41.2 +/- 1.1%); type: functional; parameters: scale not given: the % may be the effect or the level left
# Hordeum vulgare [19] = assay: Inhibition of fatty acid synthesis in Hordeum vulgare (barley) using [14C]acetate assessed as [14C]-labeled 18C fatty acid level at 200 uM after 3 hr by liquid scintillation counting (reference value: 60.3 +/- 1.3%); type: functional; parameters: scale not given: the % may be the effect or the level left
# Cucumis sativus [20] = assay: Inhibition of fatty acid synthesis in Cucumis sativus (cucumber) using [14C]acetate assessed as [14C]-labeled 16C fatty acid level at 200 uM after 3 hr by liquid scintillation counting (reference value: 29.2 +/- 3.5%); type: functional; parameters: scale not given: the % may be the effect or the level left
# Hordeum vulgare [21] = assay: Inhibition of fatty acid synthesis in Hordeum vulgare (barley) using [14C]acetate assessed as [14C]-labeled 16C fatty acid level at 200 uM after 3 hr by liquid scintillation counting (reference value: 29.5 +/- 1.3%); type: functional; parameters: scale not given: the % may be the effect or the level left
# Cucumis sativus [22] = assay: Inhibition of fatty acid synthesis in Cucumis sativus (cucumber) assessed as inhibition of [14C]acetate incoporation in total fatty acids at 200 uM measured as total disintegration per g of fresh weight after 3 hr by liquid scintillation counting (reference value: 6.4 +/- 1.2 dpm x 10^6 g'1 fresh wt); type: functional
# Hordeum vulgare [23] = assay: Inhibition of fatty acid synthesis in Hordeum vulgare (barley) using [14C]acetate assessed as [14C]-labeled 22C fatty acid level at 200 uM after 3 hr by liquid scintillation counting (reference value: 5.5 +/- 0.2%); type: functional; parameters: scale not given: the % may be the effect or the level left
# Hordeum vulgare [24] = assay: Inhibition of fatty acid synthesis in Hordeum vulgare (barley) assessed as inhibition of [14C]acetate incoporation in total fatty acids at 30 uM measured as total disintegration per g of fresh weight after 3 hr by liquid scintillation counting (reference value: 5.7 +/- 0.5 10^6 dpm x 10'6 g'1 fresh wt); type: functional
# Cucumis sativus [25] = assay: Inhibition of fatty acid synthesis in Cucumis sativus (cucumber) using [14C]malonate assessed as inhibition of [14C]-labeled 24C fatty acid production at 30 uM after 3 hr by liquid scintillation counting; type: functional, organism-based
# Hordeum vulgare [26] = assay: Inhibition of fatty acid synthesis in Hordeum vulgare (barley) using [14C]malonate assessed as inhibition of [14C]-labeled 24C fatty acid production at 30 uM after 3 hr by liquid scintillation counting; type: functional, organism-based
# Cucumis sativus [27] = assay: Inhibition of fatty acid synthesis in Cucumis sativus (cucumber) using [14C]malonate assessed as inhibition of [14C]-labeled 22C fatty acid production at 30 uM after 3 hr by liquid scintillation counting; type: functional, organism-based
# Hordeum vulgare [28] = assay: Inhibition of fatty acid synthesis in Hordeum vulgare (barley) using [14C]malonate assessed as inhibition of [14C]-labeled 22C fatty acid production at 30 uM after 3 hr by liquid scintillation counting; type: functional, organism-based
# Cucumis sativus [29] = assay: Inhibition of fatty acid synthesis in Cucumis sativus (cucumber) using [14C]malonate assessed as inhibition of [14C]-labeled 18C fatty acid production at 30 uM after 3 hr by liquid scintillation counting; type: functional, organism-based
# Hordeum vulgare [30] = assay: Inhibition of fatty acid synthesis in Hordeum vulgare (barley) using [14C]malonate assessed as inhibition of [14C]-labeled 18C fatty acid production at 30 uM after 3 hr by liquid scintillation counting; type: functional, organism-based
# Hordeum vulgare [31] = assay: Inhibition of fatty acid synthesis in Hordeum vulgare (barley) using [14C]acetate assessed as [14C]-labeled 22C fatty acid level at 30 uM after 3 hr by liquid scintillation counting (reference value: 5.5 +/- 0.2%); type: functional; parameters: scale not given: the % may be the effect or the level left
# Cucumis sativus [32] = assay: Inhibition of fatty acid synthesis in Cucumis sativus (cucumber) using [14C]acetate assessed as [14C]-labeled 20C fatty acid level at 30 uM after 3 hr by liquid scintillation counting (reference value: 5.1 +/- 0.7%); type: functional; parameters: scale not given: the % may be the effect or the level left
# Cucumis sativus [33] = assay: Inhibition of fatty acid synthesis in Cucumis sativus (cucumber) using [14C]malonate assessed as inhibition of [14C]-labeled 20C fatty acid production at 30 uM after 3 hr by liquid scintillation counting; type: functional, organism-based
# Hordeum vulgare [34] = assay: Inhibition of fatty acid synthesis in Hordeum vulgare (barley) using [14C]malonate assessed as inhibition of [14C]-labeled 20C fatty acid production at 30 uM after 3 hr by liquid scintillation counting; type: functional, organism-based
# Cucumis sativus [35] = assay: Inhibition of fatty acid synthesis in Cucumis sativus (cucumber) using [14C]malonate assessed as inhibition of [14C]-labeled 16C fatty acid production at 30 uM after 3 hr by liquid scintillation counting; type: functional, organism-based
# Hordeum vulgare [36] = assay: Inhibition of fatty acid synthesis in Hordeum vulgare (barley) using [14C]malonate assessed as inhibition of [14C]-labeled 16C fatty acid production at 30 uM after 3 hr by liquid scintillation counting; type: functional, organism-based
# Cucumis sativus [37] = assay: Inhibition of fatty acid synthesis in Cucumis sativus (cucumber) assessed as inhibition of [14C]malonate incoporation in total fatty acids at 30 uM measured after 3 hr by liquid scintillation counting; type: functional, organism-based
# Hordeum vulgare [38] = assay: Inhibition of fatty acid synthesis in Hordeum vulgare (barley) assessed as inhibition of [14C]malonate incoporation in total fatty acids at 30 uM measured after 3 hr by liquid scintillation counting; type: functional, organism-based
# Cucumis sativus [39] = assay: Inhibition of fatty acid synthesis in Cucumis sativus (cucumber) using [14C]acetate assessed as [14C]-labeled 24C fatty acid level at 30 uM after 3 hr by liquid scintillation counting (reference value: 6.5 +/- 1%); type: functional; parameters: scale not given: the % may be the effect or the level left
# Hordeum vulgare [40] = assay: Inhibition of fatty acid synthesis in Hordeum vulgare (barley) using [14C]acetate assessed as [14C]-labeled 20C fatty acid level at 30 uM after 3 hr by liquid scintillation counting (reference value: 4.7 +/- 1.6%); type: functional; parameters: scale not given: the % may be the effect or the level left
# Cucumis sativus [41] = assay: Inhibition of fatty acid synthesis in Cucumis sativus (cucumber) using [14C]acetate assessed as [14C]-labeled 18C fatty acid level at 30 uM after 3 hr by liquid scintillation counting (reference value: 41.2 +/- 1.1%); type: functional; parameters: scale not given: the % may be the effect or the level left
# Hordeum vulgare [42] = assay: Inhibition of fatty acid synthesis in Hordeum vulgare (barley) using [14C]acetate assessed as [14C]-labeled 18C fatty acid level at 30 uM after 3 hr by liquid scintillation counting (reference value: 60.3 +/- 1.3%); type: functional; parameters: scale not given: the % may be the effect or the level left
# Cucumis sativus [43] = assay: Inhibition of fatty acid synthesis in Cucumis sativus (cucumber) using [14C]acetate assessed as [14C]-labeled 16C fatty acid level at 30 uM after 3 hr by liquid scintillation counting (reference value: 29.2 +/- 3.5%); type: functional; parameters: scale not given: the % may be the effect or the level left
# Hordeum vulgare [44] = assay: Inhibition of fatty acid synthesis in Hordeum vulgare (barley) using [14C]acetate assessed as [14C]-labeled 16C fatty acid level at 30 uM after 3 hr by liquid scintillation counting (reference value: 29.5 +/- 1.3%); type: functional; parameters: scale not given: the % may be the effect or the level left
# Cucumis sativus [45] = assay: Inhibition of fatty acid synthesis in Cucumis sativus (cucumber) assessed as inhibition of [14C]acetate incoporation in total fatty acids at 30 uM measured as total disintegration per g of fresh weight after 3 hr by liquid scintillation counting (reference value: 6.4 +/- 1.2 dpm x 10^6 g'1 fresh wt); type: functional
# Cucumis sativus [46] = assay: Inhibition of fatty acid synthesis in Cucumis sativus (cucumber) using [14C]acetate assessed as [14C]-labeled 22C fatty acid level at 30 uM after 3 hr by liquid scintillation counting (reference value: 17.9 +/- 2.5%); type: functional; parameters: scale not given: the % may be the effect or the level left
smiles,measurement,setting,value
Cc1ccccc1CO[C@H]1C[C@]2(C(C)C)CC[C@@]1(C)O2 (relative stereo) [REL-CINMETHYLIN],Activity,Hordeum vulgare [1],5.1 ×10⁶ dpm
same,inhibition,Cucumis sativus [2],inactive
same,inhibition,Hordeum vulgare [3],inactive
same,inhibition,Cucumis sativus [4],inactive
same,inhibition,Hordeum vulgare [5],inactive
same,inhibition,Cucumis sativus [6],inactive
same,inhibition,Hordeum vulgare [7],inactive
same,Activity,Cucumis sativus [8],4.8%
same,Activity,Hordeum vulgare [9],5.7%
same,inhibition,Cucumis sativus [10],inactive
same,inhibition,Hordeum vulgare [11],inactive
same,inhibition,Cucumis sativus [12],inactive
same,inhibition,Hordeum vulgare [13],inactive
same,inhibition,Cucumis sativus [14],inactive
same,inhibition,Hordeum vulgare [15],inactive
same,Activity,Cucumis sativus [16],4.2%
same,Activity,Cucumis sativus [17],13.4%
same,Activity,Cucumis sativus [18],48.6%
same,Activity,Hordeum vulgare [19],67.7%
same,Activity,Cucumis sativus [20],28.9%
same,Activity,Hordeum vulgare [21],20.9%
same,Activity,Cucumis sativus [22],8.4 ×10⁶ dpm
same,Activity,Hordeum vulgare [23],5.8%
CCN(CC)C(=O)C(C)Oc1cccc2ccccc12 (stereo unspecified) [NAPROPAMIDE],Activity,Hordeum vulgare [24],5.2 ×10⁶ dpm
same,inhibition,Cucumis sativus [25],inactive
same,inhibition,Hordeum vulgare [26],inactive
same,inhibition,Cucumis sativus [27],inactive
same,inhibition,Hordeum vulgare [28],inactive
same,inhibition,Cucumis sativus [29],inactive
same,inhibition,Hordeum vulgare [30],inactive
same,Activity,Hordeum vulgare [31],6.9%
same,Activity,Cucumis sativus [32],5.5%
same,inhibition,Cucumis sativus [33],inactive
same,inhibition,Hordeum vulgare [34],inactive
same,inhibition,Cucumis sativus [35],inactive
same,inhibition,Hordeum vulgare [36],inactive
same,inhibition,Cucumis sativus [37],inactive
same,inhibition,Hordeum vulgare [38],inactive
same,Activity,Cucumis sativus [39],5.9%
same,Activity,Hordeum vulgare [40],7.6%
same,Activity,Cucumis sativus [41],43.1%
same,Activity,Hordeum vulgare [42],66.9%
same,Activity,Cucumis sativus [43],26.5%
same,Activity,Hordeum vulgare [44],18.7%
same,Activity,Cucumis sativus [45],6.2 ×10⁶ dpm
same,Activity,Cucumis sativus [46],19%
